Laboratory results from PubChem BioAssay AID248 (DTP/NCI, 2004).
Values joined by “and” are separate entries in the source; they are usually repeats but may differ in a detail not shown here. Equal entries are not always repeated. Inconclusive results and toxic doses are left out. No stated cut-off is given here; in the data, active means T/C of 150% or more; inactive means T/C below 125%. Square brackets hold non-standard residues; d marks the D form. Peptide text beside a SMILES is read from it. ξ: configuration not given here. ξV = CC(C)C(N)C(=O)O

Test system: L1210 leukemia ip in BDF1 mice, survival T/C
Test: NCI In Vivo Anticancer Drug Screen. Data for tumor model L1210 Leukemia (intraperitoneal) in B6D2F1 (BDF1) mice
Conditions: higher = longer survival
In short: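 Transplanted-tumor mice were given test agent; controls received vehicle only. Survival readings from the two groups were divided (treated over control).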

[1] = endpoint: mean survival time, dose: 100.0 mg/kg/injection, schedule: Q01DX001 (ip), vehicle: Klucel (hydroxypropylcellulose) (HPC)
[2] = endpoint: mean survival time, dose: 100.0 mg/kg/injection, schedule: Q01DX001 (ip), vehicle: saline with Tween-80
[3] = endpoint: mean survival time, dose: 100.0 mg/kg/injection, schedule: Q01DX009 (ip), vehicle: saline with Tween-80
[4] = endpoint: mean survival time, dose: 100.0 mg/kg/injection, schedule: Q04DX002 (ip), vehicle: saline with Tween-80
[5] = endpoint: mean survival time, dose: 200.0 mg/kg/injection, schedule: Q01DX001 (ip), vehicle: saline with Tween-80
[6] = endpoint: mean survival time, dose: 200.0 mg/kg/injection, schedule: Q01DX009 (ip), vehicle: saline with Tween-80
[7] = endpoint: mean survival time, dose: 200.0 mg/kg/injection, schedule: Q04DX002 (ip), vehicle: saline with Tween-80
[8] = endpoint: mean survival time, dose: 400.0 mg/kg/injection, schedule: Q01DX009 (ip), vehicle: saline with Tween-80
[9] = endpoint: mean survival time, dose: 400.0 mg/kg/injection, schedule: Q04DX002 (ip), vehicle: saline with Tween-80
[10] = endpoint: mean survival time, dose: 400.0 mg/kg/injection, schedule: Q01DX001 (ip), vehicle: saline with Tween-80
[11] = endpoint: mean survival time, dose: 100.0 mg/kg/injection, schedule: Q04DX003 (ip), vehicle: saline with Tween-80
[12] = endpoint: mean survival time, dose: 200.0 mg/kg/injection, schedule: Q04DX003 (ip), vehicle: saline with Tween-80
[13] = endpoint: mean survival time, dose: 400.0 mg/kg/injection, schedule: Q04DX003 (ip), vehicle: saline with Tween-80
[14] = endpoint: mean survival time, dose: 100.0 mg/kg/injection, schedule: Q01DX001 (ip), vehicle: saline
[15] = endpoint: mean survival time, dose: 200.0 mg/kg/injection, schedule: Q01DX001 (ip), vehicle: saline
[16] = endpoint: mean survival time, dose: 400.0 mg/kg/injection, schedule: Q01DX001 (ip), vehicle: saline
[17] = endpoint: mean survival time, dose: 100.0 mg/kg/injection, schedule: Q04DX003 (ip), vehicle: saline
[18] = endpoint: mean survival time, dose: 200.0 mg/kg/injection, schedule: Q04DX003 (ip), vehicle: saline
[19] = endpoint: mean survival time, dose: 400.0 mg/kg/injection, schedule: Q04DX003 (ip), vehicle: saline

Measured: T/C

CC(C)(C)OOC(=O)C1(F)CC1(c1ccccc1)c1ccccc1 (configuration not stated)
inactive: endpoint: mean survival time, dose: 50.0 mg/kg/injection, schedule: Q01DX001 (ip), vehicle: Klucel (hydroxypropylcellulose) (HPC) 100 % of control | [1] 100 % of control | endpoint: mean survival time, dose: 200.0 mg/kg/injection, schedule: Q01DX001 (ip), vehicle: Klucel (hydroxypropylcellulose) (HPC) 109 % of control

COc1ccc(Cl)cc1NC(=O)/C=C/c1ccccc1
inactive: [2] 95 % of control | [3] 89 % of control | [4] 98 % of control and 90 % of control | [5] 92 % of control | [6] 95 % of control and 89 % of control | [7] 96 % of control and 91 % of control | [8] 92 % of control | [9] 94 % of control and 86 % of control

Cc1c(O)cccc1F
inactive: endpoint: mean survival time, dose: 25.0 mg/kg/injection, schedule: Q04DX002 (ip), vehicle: Klucel (hydroxypropylcellulose) (HPC) 98 % of control | endpoint: mean survival time, dose: 50.0 mg/kg/injection, schedule: Q04DX002 (ip), vehicle: Klucel (hydroxypropylcellulose) (HPC) 102 % of control | endpoint: mean survival time, dose: 100.0 mg/kg/injection, schedule: Q04DX002 (ip), vehicle: Klucel (hydroxypropylcellulose) (HPC) 111 % of control and 120 % of control

CCC1=C/C(=C/c2ccc([N+](=O)[O-])cc2)C(=O)S1
inactive: [2] 87 % of control | [5] 87 % of control | [10] 87 % of control

COc1ccc(Cl)cc1NC(=O)Nc1ccc(Cl)cc1[N+](=O)[O-]
inactive: endpoint: mean survival time, dose: 100.0 mg/kg/injection, schedule: Q01DX009 (ip), vehicle: Klucel (hydroxypropylcellulose) (HPC) 100 % of control | endpoint: mean survival time, dose: 200.0 mg/kg/injection, schedule: Q01DX009 (ip), vehicle: Klucel (hydroxypropylcellulose) (HPC) 94 % of control | endpoint: mean survival time, dose: 400.0 mg/kg/injection, schedule: Q01DX009 (ip), vehicle: Klucel (hydroxypropylcellulose) (HPC) 97 % of control

[N-]=[N+]=NC(=O)C1C(c2ccccc2)=C1c1ccccc1
inactive: endpoint: mean survival time, dose: 100.0 mg/kg/injection, schedule: Q01DX001 (ip), vehicle: steriod suspending solution 93 % of control | endpoint: mean survival time, dose: 200.0 mg/kg/injection, schedule: Q01DX001 (ip), vehicle: steriod suspending solution 106 % of control | endpoint: mean survival time, dose: 400.0 mg/kg/injection, schedule: Q01DX001 (ip), vehicle: steriod suspending solution 98 % of control

COC(=O)/C=C(/Oc1cccc([N+](=O)[O-])c1)C(=O)OC
inactive: endpoint: mean survival time, dose: 75.0 mg/kg/injection, schedule: Q04DX003 (ip), vehicle: saline 105 % of control | endpoint: mean survival time, dose: 150.0 mg/kg/injection, schedule: Q04DX003 (ip), vehicle: saline 96 % of control | endpoint: mean survival time, dose: 300.0 mg/kg/injection, schedule: Q04DX003 (ip), vehicle: saline 98 % of control

Cc1ccc(NC(=O)Oc2ccc(F)cc2Cl)cc1NC(=O)Oc1ccc(F)cc1Cl
inactive: [3] 91 % of control | [11] 95 % of control | [6] 100 % of control | [12] 88 % of control | [8] 86 % of control | [13] 95 % of control

CCOC(=O)OC(=O)CNC(=O)CN1C(=O)c2ccccc2C1=O
inactive: [14] 100 % of control | [15] 94 % of control | [16] 91 % of control

CC1CNC2C(C)C3C(CC4C5CCC6CC(N=Cc7ccccc7)C(O)CC6(C)C5CCC43C)OC2(O)C1 (configuration not stated)
inactive: [1] 87 % of control | endpoint: mean survival time, dose: 400.0 mg/kg/injection, schedule: Q01DX001 (ip), vehicle: Klucel (hydroxypropylcellulose) (HPC) 91 % of control

BrCCCCBr
inactive: [14] 103 % of control | [15] 100 % of control | [16] 103 % of control

CC1(c2ccco2)CCC(=O)CC1=O (configuration not stated)
inactive: endpoint: mean survival time, dose: 100.0 mg/kg/injection, schedule: Q04DX003 (ip), vehicle: Klucel (hydroxypropylcellulose) (HPC) 101 % of control | endpoint: mean survival time, dose: 200.0 mg/kg/injection, schedule: Q04DX003 (ip), vehicle: Klucel (hydroxypropylcellulose) (HPC) 98 % of control | endpoint: mean survival time, dose: 400.0 mg/kg/injection, schedule: Q04DX003 (ip), vehicle: Klucel (hydroxypropylcellulose) (HPC) 98 % of control

CC(C)(C)/C([O-])=N/[N+](C)(C)Cc1ccccc1
inactive: [14] 97 % of control | [15] 98 % of control | [16] 98 % of control

CC(=O)c1ccc2ccccc2c1O
inactive: endpoint: mean survival time, dose: 100.0 mg/kg/injection, schedule: Q01DX009 (ip), vehicle: other 97 % of control | [17] 101 % of control | endpoint: mean survival time, dose: 200.0 mg/kg/injection, schedule: Q01DX009 (ip), vehicle: other 103 % of control | [18] 90 % of control | endpoint: mean survival time, dose: 400.0 mg/kg/injection, schedule: Q01DX009 (ip), vehicle: other 106 % of control | [19] 88 % of control

CN(C)C(=O)ON=C1c2ccccc2-c2ccccc21
inactive: [14] 103 % of control | [15] 97 % of control | [16] 103 % of control

O=C1C=C(c2ccccc2)CO1
inactive: [14] 104 % of control | [15] 122 % of control | [16] 98 % of control

CC(C)C(NC(=O)CN)C(=O)O (configuration not stated) (H-Gly-[ξV]-OH)
inactive: endpoint: mean survival time, dose: 50.0 mg/kg/injection, schedule: Q04DX002 (ip), vehicle: saline 107 % of control | endpoint: mean survival time, dose: 100.0 mg/kg/injection, schedule: Q01DX009 (ip), vehicle: saline 98 % of control | endpoint: mean survival time, dose: 100.0 mg/kg/injection, schedule: Q04DX002 (ip), vehicle: saline 110 % of control | [17] 97 % of control | endpoint: mean survival time, dose: 200.0 mg/kg/injection, schedule: Q01DX009 (ip), vehicle: saline 111 % of control | endpoint: mean survival time, dose: 200.0 mg/kg/injection, schedule: Q04DX002 (ip), vehicle: saline 103 % of control | [18] 124 % of control | endpoint: mean survival time, dose: 400.0 mg/kg/injection, schedule: Q01DX009 (ip), vehicle: saline 112 % of control | [19] 97 % of control

O=C(O)/C=C(/Cl)c1ccccc1
inactive: [11] 102 % of control | [12] 100 % of control | [13] 108 % of control

COC(=O)N1C2CC=C(C)CC21 (configuration not stated)
inactive: endpoint: mean survival time, dose: 75.0 mg/kg/injection, schedule: Q01DX001 (ip), vehicle: saline 94 % of control | endpoint: mean survival time, dose: 150.0 mg/kg/injection, schedule: Q01DX001 (ip), vehicle: saline 104 % of control | endpoint: mean survival time, dose: 300.0 mg/kg/injection, schedule: Q01DX001 (ip), vehicle: saline 100 % of control

CC(C)(C)C1CCC2SC(C)(C(C)(C)C)CC(C(C)(C)C)C2C1 (configuration not stated)
inactive: [2] 104 % of control | [5] 98 % of control | [10] 91 % of control

O=C(O)CCc1ccccc1-c1ccccc1
inactive: endpoint: mean survival time, dose: 50.0 mg/kg/injection, schedule: Q04DX002 (ip), vehicle: saline with Tween-80 96 % of control | [4] 101 % of control | [7] 96 % of control | [9] 107 % of control

c1ccc(CNc2ncnc3[nH]ncc23)cc1
inactive: endpoint: mean survival time, dose: 8.0 mg/kg/injection, schedule: Q01DX009 (ip), vehicle: saline 98 % of control | endpoint: mean survival time, dose: 16.0 mg/kg/injection, schedule: Q01DX009 (ip), vehicle: saline 103 % of control | endpoint: mean survival time, dose: 25.0 mg/kg/injection, schedule: Q01DX Z (ip), vehicle: carboxymethylcellulose (CMC) 123 % of control | endpoint: mean survival time, dose: 32.0 mg/kg/injection, schedule: Q01DX009 (ip), vehicle: saline 98 % of control | endpoint: mean survival time, dose: 50.0 mg/kg/injection, schedule: Q01DX Z (ip), vehicle: carboxymethylcellulose (CMC) 109 % of control | [15] 105 % of control | [16] 101 % of control | endpoint: mean survival time, dose: 800.0 mg/kg/injection, schedule: Q01DX001 (ip), vehicle: saline 102 % of control | endpoint: median survival time, dose: 8.0 mg/kg/injection, schedule: Q01DX009 (ip), vehicle: saline 93 % of control and 100 % of control and 118 % of control | endpoint: median survival time, dose: 16.0 mg/kg/injection, schedule: Q01DX009 (ip), vehicle: saline 100 % of control (2×) and 112 % of control | endpoint: median survival time, dose: 32.0 mg/kg/injection, schedule: Q01DX009 (ip), vehicle: saline 105 % of control and 112 % of control | endpoint: median survival time, dose: 64.0 mg/kg/injection, schedule: Q01DX009 (ip), vehicle: saline 100 % of control (2×) and 122 % of control
